Species on record: Rattus norvegicus
Test: DrugMatrix - Regimen: Daily Repeat
Assay type: toxicity, organism-based, Sprague-Dawley
Set-up: regimen Daily Repeat, gender Male, age 6-8 weeks
Conditions: in vivo, iv, 0.5 mg/kg, dose level Low, vehicle 100 % SALINE; for ABSOLUTE BASOPHIL / ABSOLUTE EOSINOPHIL / ABSOLUTE LYMPHOCYTE / ABSOLUTE MONOCYTE / ABSOLUTE SEGMENTED NEUTROPHIL / BASOPHIL / EOSINOPHIL / ERYTHROCYTE COUNT / HEMATOCRIT / HEMOGLOBIN / LEUKOCYTE COUNT / LYMPHOCYTE / MEAN CORPUSCULAR HEMOGLOBIN / MEAN CORPUSCULAR HEMOGLOBIN CONCENTRATION / MEAN CORPUSCULAR VOLUME / MONOCYTE / NEUTROPHIL / NUCLEATED RED BLOOD CELLS / PLATELET COUNT: tissue Blood; for ALANINE AMINOTRANSFERASE / ALBUMIN / ALKALINE PHOSPHATASE / ASPARTATE AMINOTRANSFERASE / BLOOD UREA NITROGEN / CARBON DIOXIDE / CHLORIDE / CHOLESTEROL / CREATINE PHOSPHOKINASE / CREATININE / GLUCOSE / LACTATE DEHYDROGENASE / LIPASE / PHOSPHORUS / POTASSIUM / SODIUM / TOTAL BILIRUBIN / TOTAL PROTEIN / URIC ACID: tissue Plasma

Structure (SMILES): CC[N+](CC)(CC)CCOc1cccc(OCC[N+](CC)(CC)CC)c1OCC[N+](CC)(CC)CC.[I-].[I-].[I-] [GALLAMINE TRIETHIODIDE]
- ABSOLUTE BASOPHIL (72 h, time 3 day): 0 CELLS/uL
- ABSOLUTE EOSINOPHIL (72 h, time 3 day): 0 CELLS/uL
- ABSOLUTE LYMPHOCYTE (72 h, time 3 day): 12252.67 CELLS/uL
- ABSOLUTE MONOCYTE (72 h, time 3 day): 379 CELLS/uL
- ABSOLUTE SEGMENTED NEUTROPHIL (72 h, time 3 day): 1435 CELLS/uL
- BASOPHIL (72 h, time 3 day): 0%
- EOSINOPHIL (72 h, time 3 day): 0%
- ERYTHROCYTE COUNT (72 h, time 3 day): 5.22 x10E6/uL
- HEMATOCRIT (72 h, time 3 day): 33.63%
- HEMOGLOBIN (72 h, time 3 day): 13.53 G/DL
- LEUKOCYTE COUNT (72 h, time 3 day): 14.07 x10E3/uL
- LYMPHOCYTE (72 h, time 3 day): 87%
- MEAN CORPUSCULAR HEMOGLOBIN (72 h, time 3 day): 25.93 pg
- MEAN CORPUSCULAR HEMOGLOBIN CONCENTRATION (72 h, time 3 day): 40.3 G/DL
- MEAN CORPUSCULAR VOLUME (72 h, time 3 day): 64.4 fL
- MONOCYTE (72 h, time 3 day): 2.67%
- NEUTROPHIL (72 h, time 3 day): 10.33%
- NUCLEATED RED BLOOD CELLS (72 h, time 3 day): 0.33 /100WBC
- PLATELET COUNT (72 h, time 3 day): 1175 x10E3/uL
- ALANINE AMINOTRANSFERASE (72 h, time 3 day): 52 u/L
- ALBUMIN (72 h, time 3 day): 4.07 G/DL
- ALKALINE PHOSPHATASE (72 h, time 3 day): 372 u/L
- ASPARTATE AMINOTRANSFERASE (72 h, time 3 day): 79.33 u/L
- BLOOD UREA NITROGEN (72 h, time 3 day): 15.33 mg/dL
- CARBON DIOXIDE (72 h, time 3 day): 23.33 mmol/L
- CHLORIDE (72 h, time 3 day): 104.33 MEQ/L
- CHOLESTEROL (72 h, time 3 day): 71.33 mg/dL
- CREATINE PHOSPHOKINASE (72 h, time 3 day): 361.33 u/L
- CREATININE (72 h, time 3 day): 0.14 mg/dL
- GLUCOSE (72 h, time 3 day): 161.67 mg/dL
- LACTATE DEHYDROGENASE (72 h, time 3 day): 163 u/L
- LIPASE (72 h, time 3 day): 9 u/L
- PHOSPHORUS (72 h, time 3 day): 13.97 mg/dL
- POTASSIUM (72 h, time 3 day): 6.65 MEQ/L
- SODIUM (72 h, time 3 day): 146.57 MEQ/L
- TOTAL BILIRUBIN (72 h, time 3 day): 0.2 mg/dL
- TOTAL PROTEIN (72 h, time 3 day): 5.67 G/DL
- URIC ACID (72 h, time 3 day): 1.4 mg/dL
- ABSOLUTE BASOPHIL (120 h, time 5 day): 0 CELLS/uL
- ABSOLUTE EOSINOPHIL (120 h, time 5 day): 43 CELLS/uL
- ABSOLUTE LYMPHOCYTE (120 h, time 5 day): 13831.33 CELLS/uL
- ABSOLUTE MONOCYTE (120 h, time 5 day): 112.67 CELLS/uL
- ABSOLUTE SEGMENTED NEUTROPHIL (120 h, time 5 day): 1346.33 CELLS/uL
- BASOPHIL (120 h, time 5 day): 0%
- EOSINOPHIL (120 h, time 5 day): 0.33%
- ERYTHROCYTE COUNT (120 h, time 5 day): 5.96 x10E6/uL
- HEMATOCRIT (120 h, time 5 day): 37.33%
- HEMOGLOBIN (120 h, time 5 day): 14.57 G/DL
- LEUKOCYTE COUNT (120 h, time 5 day): 15.33 x10E3/uL
- LYMPHOCYTE (120 h, time 5 day): 90.33%
- MEAN CORPUSCULAR HEMOGLOBIN (120 h, time 5 day): 24.5 pg
- MEAN CORPUSCULAR HEMOGLOBIN CONCENTRATION (120 h, time 5 day): 39.03 G/DL
- MEAN CORPUSCULAR VOLUME (120 h, time 5 day): 62.7 fL
- MONOCYTE (120 h, time 5 day): 0.67%
- NEUTROPHIL (120 h, time 5 day): 8.67%
- NUCLEATED RED BLOOD CELLS (120 h, time 5 day): 0.33 /100WBC
- PLATELET COUNT (120 h, time 5 day): 1517.33 x10E3/uL
- ALANINE AMINOTRANSFERASE (120 h, time 5 day): 52.33 u/L
- ALBUMIN (120 h, time 5 day): 4.17 G/DL
- ALKALINE PHOSPHATASE (120 h, time 5 day): 369.67 u/L
- ASPARTATE AMINOTRANSFERASE (120 h, time 5 day): 80.67 u/L
- BLOOD UREA NITROGEN (120 h, time 5 day): 15.67 mg/dL
- CARBON DIOXIDE (120 h, time 5 day): 22 mmol/L
- CHLORIDE (120 h, time 5 day): 104 MEQ/L
- CHOLESTEROL (120 h, time 5 day): 61.67 mg/dL
- CREATINE PHOSPHOKINASE (120 h, time 5 day): 215 u/L
- CREATININE (120 h, time 5 day): 0.26 mg/dL
- GLUCOSE (120 h, time 5 day): 161 mg/dL
- LACTATE DEHYDROGENASE (120 h, time 5 day): 282 u/L
- LIPASE (120 h, time 5 day): 10 u/L
- PHOSPHORUS (120 h, time 5 day): 14.53 mg/dL
- POTASSIUM (120 h, time 5 day): 7.06 MEQ/L
- SODIUM (120 h, time 5 day): 146.97 MEQ/L
- TOTAL BILIRUBIN (120 h, time 5 day): 0.2 mg/dL
- TOTAL PROTEIN (120 h, time 5 day): 5.93 G/DL
- URIC ACID (120 h, time 5 day): 1.57 mg/dL

Reference: ChEMBL document CHEMBL3885881, “DrugMatrix”
